Values of other authors, collected in patent US10478452B2, “Antiviral pharmaceutical composition for topical use” (QUIMICA LUAR SRL, priority 2015, dated 2019).

Settings: according to some studies

concentrations of intracellular triphosphate ganciclovir relative to those of acyclovir: approximately ten-fold higher
mean life of intracellular triphosphate: more than 24 hours
Compound: Nc1nc(O)c2ncn(COC(CO)CO)c2n1 [ganciclovir]
